A short description of the data set: solvent given as SMILES.

Structures are written as SMILES.

Turning to `COc1ccc(-c2c3cc4cc(C)sc4cc3c(C#Cc3ccccc3)c3cc4cc(C)sc4cc23)cc1`, the absorption maximum (in ClCCl) is reported as 539 nm.
As for `CCCCCCCCc1ccc(-n2c3c(c4c2c2c(n4-c4ccc(CCCCCCCC)cc4)-c4ccccc4NB2c2ccccc2)B(c2ccccc2)Nc2ccccc2-3)cc1`, the absorption maximum (in Cc1ccccc1) turned out to be 387 nm.
As to `N#Cc1ccc(N2c3c(sc4ccccc34)Sc3sc4ccccc4c32)cc1`, the absorption maximum (in ClCCl) is reported as 309 nm.
In the case of `Cc1ccc(C2=C3C=CC(=[N+](C)C)C=C3[Si](C)(C)c3cc(N(C)C)ccc32)c(C)c1`, under “in O”, the absorption maximum amounted to 646 nm.
In turn, `c1ccc(-n2c3ccccc3c3cc(-c4ccn5nc(-c6ccc(-n7c8ccccc8c8ccccc87)cc6)nc5c4)ccc32)cc1` gave an absorption maximum (in C1CCOC1) of 341 nm.
With `CCn1c2ccccc2c2cccc(N(c3ccccc3)c3ccccc3)c21`, for the setting “in ClCCl”, the absorption maximum amounted to 353 nm.
Regarding `F[B-]1(F)n2c(NCc3ccccc3)ccc2C(c2c(Cl)cccc2Cl)=C2C=CC(NCc3ccccc3)=[N+]21`, the absorption maximum runs as follows: (in CC#N) 578 nm; (in CCCCCC) 581 nm; (in CCOC(C)=O) 580 nm; (in CO) 579 nm; (in ClCCl) 581 nm.
Consider `COc1cccc(-c2[nH]c(=O)n3c2-c2ccccc2C3=O)c1O`, for which the absorption maximum runs as follows: (in CC#N) 393 nm; (in CO) 395 nm; (in ClCCl) 396 nm.
`CC1(C)c2ccccc2N(c2ccc(C(=C(C#N)C#N)c3ccc(N4c5ccccc5C(C)(C)c5ccccc54)cc3)cc2)c2ccccc21` had an absorption maximum (in Cc1ccccc1) of 436 nm.
Regarding `C(#Cc1cccs1)C(C#Cc1cccs1)=Cc1ccc(C=C(C#Cc2cccs2)C#Cc2cccs2)cc1`, under “in ClC(Cl)Cl”, the absorption maximum came out at 438 nm.
`CC(C)(C)c1ccc2c(c1)c1cc(C(C)(C)C)ccc1n2-c1ccc(-n2c3ccc(C(C)(C)C)cc3c3cc(C(C)(C)C)ccc32)c(C(=O)c2ccncc2)c1` displayed an absorption maximum (in Cc1ccccc1) of 418 nm.
Turning to `O=C(N/N=C/c1ccccc1O)c1ccccc1`, the absorption maximum reads like this: (in C1CCOC1) 334 nm; (in CC#N) 333 nm; (in CC(C)=O) 415 nm; (in CCO) 400 nm; (in CN(C)C=O) 397 nm; (in CS(C)=O) 329 nm. Also, the absorption maximum (in ClCCl) turned out to be 330 nm.
`C(#Cc1nc2ccccc2s1)c1ccc(N(c2ccc(C#Cc3nc4ccccc4s3)cc2)c2ccc(C#Cc3nc4ccccc4s3)cc2)cc1` had an absorption maximum (in Cc1ccccc1) of 404 nm.
With `COc1ccc2cc(C#Cc3ccc([N+](=O)[O-])cc3)ccc2c1`, the absorption maximum amounted to 356 nm (in C1CCOC1), 360 nm (in ClC(Cl)Cl) and 356 nm (in ClCCl).
With `Cc1ccc(C(=O)/C=C2\C(=O)Nc3ccccc32)cc1C`, the absorption maximum by setting is: (in C1CCCCC1) 335 nm; (in C1COCCO1) 335 nm; (in CCCCCC) 333 nm; (in CCOC(C)=O) 335 nm; (in CN(C)C=O) 338 nm; (in ClCCl) 336 nm. Further, the absorption maximum (in O) is recorded as 338 nm.
With `COc1ccc(-c2cc(-c3ccc(OC)cc3)c3c(N)nc(N4CCCC4)c(C#N)c3n2)cc1`, the absorption maximum (in CC#N) is listed as 416 nm; the absorption maximum (in CC(C)=O) came out at 416 nm; the absorption maximum (in CC(C)O) stood at 412 nm; the absorption maximum (in CO) was 412 nm; the absorption maximum (in ClC(Cl)Cl) is given as 420 nm; the absorption maximum (in ClCCl) turned out to be 418 nm. The absorption maximum (in c1ccccc1) is listed as 420 nm.
As to `c1ccc(-c2nc(-c3c[nH]c4ccccc34)n3ccccc23)cc1`, the absorption maximum runs as follows: (in C1CCCCC1) 382 nm; (in CC#N) 381 nm; (in CO) 372 nm; (in ClCCl) 380 nm; (in O) 390 nm.
As for `COc1ccc(/C=C/c2ccccc2)cc1`, the absorption maximum (in CC#N) was determined as 317 nm.
As to `Cc1ccc(-n2c3ccccc3c3cc(C=C(C#N)C#N)ccc32)cc1`, the absorption maximum (in C1CCOC1) worked out at 407 nm; the absorption maximum (in CC#N) worked out at 402 nm; the absorption maximum (in CC(C)=O) is 402 nm; the absorption maximum (in CCOC(C)=O) amounted to 400 nm; the absorption maximum (in CO) is 402 nm; the absorption maximum (in CS(C)=O) is recorded as 407 nm. For the same molecule, the absorption maximum (in Cc1ccccc1) amounted to 406 nm and the absorption maximum (in ClC(Cl)Cl) was 413 nm.
`CC(C)(C)c1ccc(-c2cc(-c3ccc(-c4cc(-c5ccc(C(C)(C)C)cc5)c(C(=O)NCc5cccs5)s4)s3)sc2C(=O)NCc2cccs2)cc1` came in with an absorption maximum (in ClCCl) of 394 nm.
`C/C=C/C=C/C1=NC(=C\c2ccc(O)cc2)/C(=O)N1C`: the absorption maximum turned out to be 425 nm (in ClC(Cl)Cl) and 421 nm (in O).
Where the note is “in ClCCl”, `c1ccc(C2c3ccc4ccc5ccccc5c4c3-c3c2ccc2ccc4ccccc4c32)cc1` had an absorption maximum of 401 nm.
Still for that read-out and setting: the figure for `CCCCCCCCCCCCN1C(=O)c2c(c3ccc4cc(-c5ccc(OC)cc5)c(OC)cc4c3c3c2ccc2cc(-c4ccc(OC)cc4)c(OC)cc23)C1=O` is 443 nm.
In the case of `c1ccc2c(c1)-c1ccccc1C21c2cc(-c3ccc4ccc5cccc6ccc3c4c56)ccc2-c2ccc(-c3ccc4ccc5cccc6ccc3c4c56)cc21`, for the setting “in ClC(Cl)Cl”, the absorption maximum amounted to 364 nm.
The same measure, in the same setting: in the case of `CC[Si](CC)(CC)c1cc2ccc3cccc4ccc(c1C(=O)NC(C)(C)C)c2c34` it was 381 nm.
Regarding `Clc1ccc(/C=C/c2nc3ccccc3s2)cc1`, the absorption maximum amounted to 340 nm (in C1CCCCC1) and 340 nm (in CO).
Molecule `C/C=C/C=C/C1=NC(=C\c2ccc([O-])cc2)/C(=O)N1C` returned an absorption maximum (in O) of 482 nm.
Where the note is “in ClC(Cl)Cl”, `CCCCn1c2ccc(-c3ccc(C(F)(F)F)cc3)cc2c2ccc3c4cc(-c5ccc(C(F)(F)F)cc5)ccc4n(CCCC)c3c21` returned an absorption maximum of 301 nm.
On to `Cc1cc(C)c(C2=C(c3c(C)sc(-c4ccc(-c5nc(-c6ccccc6)c(-c6ccccc6)[nH]5)cc4)c3C)C(F)(F)C(F)(F)C2(F)F)s1`, for which the absorption maximum (in C1CCOC1) is on record as 332 nm.
`CCCCCCCCc1ccc(-c2ccc(/C=C(\C#N)c3ccc(-c4cccc5cccc(-c6ccc(/C(C#N)=C/c7ccc(-c8ccc(CCCCCCCC)cc8)cc7)cc6)c45)cc3)cc2)cc1` gave an absorption maximum (in Cc1ccccc1) of 350 nm.
Regarding `C(=C1c2ccccc2CCc2ccccc21)c1ccc(-c2ccc(C=C3c4ccccc4CCc4ccccc43)cc2)cc1`, the absorption maximum (in C1CCOC1) amounted to 335 nm.
Take `c1ccc(N(c2ccccc2)c2c3ccccc3cc3ccccc23)cc1`: the absorption maximum (in Cc1ccccc1) turned out to be 428 nm.
Consider `N#Cc1nc(N(Cc2ccc(I)cc2)Cc2ccc(I)cc2)c(C#N)nc1N(Cc1ccc(I)cc1)Cc1ccc(I)cc1`, for which, where the note is “in ClC(Cl)Cl”, the absorption maximum is 484 nm.
On to `c1ccc(-c2nn(-c3ccccc3)c3nc4ccc(N(c5ccccc5)c5ccccc5)cc4cc23)cc1`, for which the absorption maximum runs as follows: (in C1CCCCC1) 452.08 nm; (in C1CCOC1) 450.05 nm; (in CC#N) 447.03 nm; (in CC(C)=O) 448.03 nm; (in CCCCCl) 451.06 nm; (in CCCCOCCCC) 451.06 nm. Moreover, the absorption maximum (in CN(C)C=O) amounted to 450.05 nm.
Molecule `CC(C)[Si](C#Cc1c2ccccc2c(C#C[Si](C(C)C)(C(C)C)C(C)C)c2nc3c(ccc4ccccc43)nc12)(C(C)C)C(C)C` displayed an absorption maximum (in CCCCCC) of 544 nm.
Take `Cc1ccc2nc3cc4c5c(cccc5c3nc2c1)C(c1ccccc1)=C(c1ccccc1)O4`: the absorption maximum (in ClCCl) is reported as 491 nm.
As for `COc1ccc2c3c([nH]c2c1)C(C)=NCC3`, the absorption maximum stood at 328 nm (in CC#N), 330 nm (in CS(C)=O) and 372 nm (in O).
Consider `CN(C)c1ccc(-c2ccc(-c3cc(N4CCCCC4)c(C#N)c4c3-c3ccccc3CC4)s2)cc1`, for which the absorption maximum by setting is: (in C1CCCCC1) 368 nm; (in C1CCOC1) 350 nm; (in CN(C)C=O) 384 nm; (in CS(C)=O) 379 nm; (in Cc1ccccc1) 377 nm; (in ClC(Cl)Cl) 377 nm.
Where the note is “in ClCCl”, `CCC1=C(C)C2=C(/C=C/Sc3ccccc3)c3c(C)c(CC)c(C)n3[B-](F)(F)[N+]2=C1C` showed an absorption maximum of 528 nm.
On to `CC[n+]1c(-c2ccccc2)c2cc(N)ccc2c2ccc(NC(N)=O)cc21`, for which the absorption maximum (in O) is 458 nm.
For the setting “in CC#N”, `COc1ccc(-c2csc(/C(C#N)=C/c3ccc(Cl)cc3Cl)n2)cc1` had an absorption maximum of 377 nm.
As for `O=Cc1cc2c(cc3ccc4cccc5ccc2c3c45)[nH]1`, the absorption maximum (in CCOC(C)=O) turned out to be 416 nm.
For `COc1ccccc1C1=[N+]2C(=Nc3c(-c4ccccc4)cc(-c4ccccc4OC)n3[B-]2(F)F)C(c2ccccc2)=C1`, the absorption maximum (in Cc1ccccc1) turned out to be 640 nm.
For `c1ccc2c(-n3c(-c4ccc(-c5ccc(-c6nc7c8ccccc8c8ccccc8c7n6-c6cccc7ccccc67)c6ccccc56)c5ccccc45)nc4c5ccccc5c5ccccc5c43)cccc2c1`, where the note is “in ClCCl”, the absorption maximum stood at 334 nm.
The same measure, in the same setting: the figure for `CCOC(=O)c1c(-c2cc3cc4c(cc3oc2=O)OC(C)(C)CC4)nn(-c2cccc(C)c2)c1C(=O)OCC` is 347 nm.
Consider `COc1ccc2cc(-c3ccc(-c4cc5ccc(OC)cc5oc4=O)cc3)c(=O)oc2c1`, for which the absorption maximum (in ClC(Cl)Cl) was 362 nm.
`C(=C\c1ccncn1)/c1ccc(N(c2ccccc2)c2ccccc2)cc1`: the absorption maximum reads like this: (in C1CCOC1) 398 nm; (in CC#N) 394 nm; (in CCCCCCC) 392 nm; (in CS(C)=O) 401 nm; (in ClCCl) 400 nm.
`O=C(O)CCCCCNC(=O)c1cccc2c(=O)c3ccccc3[nH]c12` gave an absorption maximum (in O) of 409 nm.
Regarding `COc1ccccc1-c1nc(-c2ccc(C(F)(F)F)cc2)n(-c2ccc(C)cc2)c1-c1ccccc1OC`, the absorption maximum (in CC(C)O) was determined as 285 nm; the absorption maximum (in CCCCCC) is given as 285 nm; the absorption maximum (in CO) was found to be 284 nm; the absorption maximum (in CS(C)=O) is 286 nm; the absorption maximum (in ClCCl) is given as 286 nm.

The values above are taken from the Deep4Chem optical property database.
